Experimental data: PubChem BioAssay (NCI)
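All cell lines were grown in 96-well plates and treated with compound for 48 hours. The concentration for full growth arrest is given as TGI.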

Assays:
Assay in all cases: inhibition of tumour cell growth, NCI panel, 48 h
HCT-15 colon = test system: HCT-15 colon
HL-60(TB) leukemia = test system: HL-60(TB) leukemia
A498 renal = test system: A498 renal
EKVX NSCLC = test system: EKVX NSCLC
UO-31 renal = test system: UO-31 renal
UACC-62 melanoma = test system: UACC-62 melanoma
NCI-H226 lung = test system: NCI-H226 lung
LOX IMVI melanoma = test system: LOX IMVI melanoma
SF-539 CNS = test system: SF-539 CNS
MALME-3M melanoma = test system: MALME-3M melanoma
HOP-62 NSCLC = test system: HOP-62 NSCLC
T-47D breast = test system: T-47D breast
HCC-2998 colon = test system: HCC-2998 colon
SNB-75 CNS = test system: SNB-75 CNS
RXF 393 renal = test system: RXF 393 renal
A549 NSCLC = test system: A549 NSCLC
HT29 colon = test system: HT29 colon
MOLT-4 leukemia = test system: MOLT-4 leukemia
CCRF-CEM leukemia = test system: CCRF-CEM leukemia
SN12C renal = test system: SN12C renal
U251 CNS = test system: U251 CNS
786-0 renal = test system: 786-0 renal
SF-295 CNS = test system: SF-295 CNS
COLO 205 colon = test system: COLO 205 colon
SK-MEL-5 melanoma = test system: SK-MEL-5 melanoma
ACHN renal = test system: ACHN renal
NCI-H460 lung = test system: NCI-H460 lung
TK-10 renal = test system: TK-10 renal
OVCAR-8 ovarian = test system: OVCAR-8 ovarian
MDA-MB-231 breast = test system: MDA-MB-231 breast
SNB-19 CNS = test system: SNB-19 CNS
SR leukemia = test system: SR leukemia
CAKI-1 renal = test system: CAKI-1 renal
K-562 leukemia = test system: K-562 leukemia
M14 melanoma = test system: M14 melanoma
MDA-N = test system: MDA-N
NCI/ADR-RES ovarian = test system: NCI/ADR-RES ovarian
NCI-H23 lung = test system: NCI-H23 lung
SK-MEL-2 melanoma = test system: SK-MEL-2 melanoma
SK-OV-3 ovarian = test system: SK-OV-3 ovarian
OVCAR-3 ovarian = test system: OVCAR-3 ovarian
MDA-MB-435 = test system: MDA-MB-435
SK-MEL-28 melanoma = test system: SK-MEL-28 melanoma
HS 578T breast = test system: HS 578T breast
OVCAR-5 ovarian = test system: OVCAR-5 ovarian
MCF7 breast = test system: MCF7 breast
HOP-92 NSCLC = test system: HOP-92 NSCLC
SW-620 colon = test system: SW-620 colon
RPMI-8226 leukemia = test system: RPMI-8226 leukemia
SF-268 CNS = test system: SF-268 CNS
DU-145 prostate = test system: DU-145 prostate
BT-549 breast = test system: BT-549 breast
UACC-257 melanoma = test system: UACC-257 melanoma
PC-3 prostate = test system: PC-3 prostate
KM12 colon = test system: KM12 colon
NCI-H522 lung = test system: NCI-H522 lung
OVCAR-4 ovarian = test system: OVCAR-4 ovarian
HCT-116 colon = test system: HCT-116 colon
IGROV1 ovarian = test system: IGROV1 ovarian

## ClCc1nn(-c2ccccc2)c(CCl)c1CCl
HCT-15 colon
  TGI: 9.06 µM
HL-60(TB) leukemia
  TGI: 6.78 µM
A498 renal
  TGI: 24.5 µM
EKVX NSCLC
  TGI: 8.97 µM
UO-31 renal
  TGI: 11.5 µM
UACC-62 melanoma
  TGI: 14.4 µM
NCI-H226 lung
  TGI: 13.9 µM
LOX IMVI melanoma
  TGI: 4.29 µM
SF-539 CNS
  TGI: 6.34 µM
MALME-3M melanoma
  TGI: 9.88 µM
HOP-62 NSCLC
  TGI: 33.8 µM
T-47D breast
  TGI: 16.4 µM
HCC-2998 colon
  TGI: 24.7 µM
SNB-75 CNS
  TGI: 11.4 µM
RXF 393 renal
  TGI: 15.3 µM
A549 NSCLC
  TGI: 24.5 µM
HT29 colon
  TGI: 9.9 µM
MOLT-4 leukemia
  TGI: 6.76 µM
CCRF-CEM leukemia
  TGI: 6.02 µM
SN12C renal
  TGI: 11.1 µM
U251 CNS
  TGI: 6.05 µM
786-0 renal
  TGI: 8.77 µM
SF-295 CNS
  TGI: 26.5 µM
COLO 205 colon
  TGI: 8.95 µM
SK-MEL-5 melanoma
  TGI: 8.43 µM
ACHN renal
  TGI: 7.62 µM
NCI-H460 lung
  TGI: 12.5 µM
TK-10 renal
  TGI: 21.3 µM
OVCAR-8 ovarian
  TGI: 6.17 µM
MDA-MB-231 breast
  TGI: 12.1 µM
SNB-19 CNS
  TGI: 19.9 µM
SR leukemia
  TGI: 4.41 µM
CAKI-1 renal
  TGI: 20.6 µM
K-562 leukemia
  TGI: 6.34 µM
M14 melanoma
  TGI: 10.3 µM
MDA-N
  TGI: 8.88 µM
NCI/ADR-RES ovarian
  TGI: > 100 µM
NCI-H23 lung
  TGI: 14.3 µM
SK-MEL-2 melanoma
  TGI: 15.5 µM
SK-OV-3 ovarian
  TGI: 23.3 µM
OVCAR-3 ovarian
  TGI: 11 µM
MDA-MB-435
  TGI: 6.6 µM
SK-MEL-28 melanoma
  TGI: 12.4 µM
HS 578T breast
  TGI: 58.3 µM
OVCAR-5 ovarian
  TGI: 15.2 µM
MCF7 breast
  TGI: 16 µM
HOP-92 NSCLC
  TGI: 9.85 µM
SW-620 colon
  TGI: 11.4 µM
RPMI-8226 leukemia
  TGI: 7.18 µM
SF-268 CNS
  TGI: 17.4 µM
DU-145 prostate
  TGI: 16.6 µM
BT-549 breast
  TGI: 18.3 µM
UACC-257 melanoma
  TGI: 25 µM
PC-3 prostate
  TGI: 18.4 µM
KM12 colon
  TGI: 11.9 µM
NCI-H522 lung
  TGI: 10.2 µM
OVCAR-4 ovarian
  TGI: 7.61 µM
HCT-116 colon
  TGI: 7.54 µM
IGROV1 ovarian
  TGI: 18.2 µM

## C=C1CCC(O)C/C1=C/C=C1\CCCC2(C)C1CCC2C(C)CCCC(C)C (stereo not drawn)
HCT-15 colon
  TGI: 35.3 µM
HL-60(TB) leukemia
  TGI: > 60.2 µM
A498 renal
  TGI: 36.7 µM
EKVX NSCLC
  TGI: 35.4 µM
UO-31 renal
  TGI: 28.3 µM
UACC-62 melanoma
  TGI: 34.9 µM
NCI-H226 lung
  TGI: 31.3 µM
LOX IMVI melanoma
  TGI: 34.5 µM
SF-539 CNS
  TGI: 36.5 µM
MALME-3M melanoma
  TGI: 38 µM
HOP-62 NSCLC
  TGI: 35.4 µM
T-47D breast
  TGI: 38.8 µM
HCC-2998 colon
  TGI: 38.6 µM
SNB-75 CNS
  TGI: 37.6 µM
RXF 393 renal
  TGI: 33.4 µM
A549 NSCLC
  TGI: 36.3 µM
HT29 colon
  TGI: 29.9 µM
MOLT-4 leukemia
  TGI: > 61.5 µM
CCRF-CEM leukemia
  TGI: > 65.4 µM
SN12C renal
  TGI: 30.8 µM
U251 CNS
  TGI: 34.4 µM
786-0 renal
  TGI: 30.6 µM
SF-295 CNS
  TGI: 35.1 µM
COLO 205 colon
  TGI: 34 µM
SK-MEL-5 melanoma
  TGI: 36.3 µM
ACHN renal
  TGI: 30.6 µM
NCI-H460 lung
  TGI: 46.7 µM
TK-10 renal
  TGI: 25.1 µM
OVCAR-8 ovarian
  TGI: 33.2 µM
MDA-MB-231 breast
  TGI: 35.6 µM
SNB-19 CNS
  TGI: 33.2 µM
SR leukemia
  TGI: > 63.6 µM
CAKI-1 renal
  TGI: 35.2 µM
K-562 leukemia
  TGI: > 59.2 µM
M14 melanoma
  TGI: 34.8 µM
MDA-N
  TGI: 34.3 µM
NCI/ADR-RES ovarian
  TGI: 34.9 µM
NCI-H23 lung
  TGI: 33.7 µM
SK-MEL-2 melanoma
  TGI: 37.2 µM
SK-OV-3 ovarian
  TGI: 41.9 µM
OVCAR-3 ovarian
  TGI: 35.4 µM
MDA-MB-435
  TGI: 31.3 µM
SK-MEL-28 melanoma
  TGI: 30.4 µM
HS 578T breast
  TGI: 36.4 µM
OVCAR-5 ovarian
  TGI: 37.4 µM
MCF7 breast
  TGI: 29.3 µM
HOP-92 NSCLC
  TGI: 33 µM
SW-620 colon
  TGI: 31.8 µM
RPMI-8226 leukemia
  TGI: 64.9 µM
SF-268 CNS
  TGI: 46.5 µM
DU-145 prostate
  TGI: 41.3 µM
BT-549 breast
  TGI: 37.4 µM
UACC-257 melanoma
  TGI: 32.2 µM
PC-3 prostate
  TGI: 34.3 µM
KM12 colon
  TGI: 38 µM
NCI-H522 lung
  TGI: 33 µM
OVCAR-4 ovarian
  TGI: 35.7 µM
HCT-116 colon
  TGI: 28.5 µM
IGROV1 ovarian
  TGI: 31.3 µM
